Source: patent publication US7709537B1, “Food materials useful in preventing and ameliorating metabolic bone diseases and preventives/remedies for metabolic bone diseases comprising these materials” (Meiji Dairiese Corporation, priority 1999, dated 2010)

Legend:
[1] = tested on: human osteoblasts (SaM-1); assay: Mineralization (Ca and P accumulation in extracellular matrices) of human osteoblasts; type: cell-based; conditions: SaM-1 cells, 32 days, 2 mM glycerophosphoric acid
Protocol: Employed were cultured human osteoblasts (SaM-1), which had been established from the periosteum of an ulna of a person obtained during a surgical operation of a fractured bone. Those SaM-1 cells were equipped with all the characteristics of osteoblasts (Koshihara, Y. et al.: In Vitro Cell, Dev. Biol., 25, 37-43, 1989). SaM-1 cells are known to promote mineralization in the presence of 2 mM a-glycerophosphoric acid, depending upon the concentration of 1α,25(OH)2D3.
SaM-1 cells of 18 PDL (population doubling level) were seeded to a 12-well plate, and cultured to a confluent state. a-Glycerophosphoric acid, a mineralization promoter, was then added to 2 mM. […]
Ca in each extracellular matrix was quantitated by using a kit (“Calcium C Test Wako”) based on the o-cresolphthalein complexone method (OCPC method).
After completion of the culture, the cells were washed with Hanks' solution. […] Five minutes later, the reaction mixtures were measured by an absorptiometer (570 nm)(FIG. 6).
P in each extracellular matrix was quantitated by the method proposed by Chen et al. (Chen, P. S. et al.: Anal. Chem., 28, 1756-1758, 1956).
0.84% Ammonium molybdate, 2 N sulfuric acid and 10% ascorbic acid were mixed at 3:3:1 (volume ratio) to prepare a reaction reagent. The extracts (100 μL) obtained in the above-described Ca quantitation were each diluted with distilled water (800 μL). […]

[2] = tested on: primary osteoblast-like interstitial cells and bone marrow cells of ddY mice; assay: Osteoclast formation in co-culture of mouse osteoblast-like interstitial cells and bone marrow cells; type: cell-based
From the text: (2) The calvaria of ddY mice newborn were enzymatically treated (with a mixed solution of collagenase and disperse) to obtain primary osteoblast-like interstitial cells. On the other hand, bone marrow cells were isolated from the femurs and shinbones of the same strain mice (males of 6 to 9 weeks of age). The primary osteoblast-like interstitial cells and bone marrow cells were co-cultured in the presence of ACNQ to investigate differentiation induction effect of ACNQ on osteoclasts.
Using αMEM added with 10% FBS, a culture which contained the primary osteoblast-like interstitial cells and the bone marrow cells at a cell count ratio of about 1:20 was co-cultured in the presence of 10^−8 M to 10^−10 M 1α,25(OH)2D3 for 6 to 8 days. During the culture period, ACNQ solutions of various concentrations and as a control for comparison, vitamin K2 which is known to inhibit the formation of osteoclasts, were added, respectively, upon culture medium replacement (replaced by a half of the volume of the culture medium; replaced on every third days).
Cells, which were positive to TRAP staining and internally contained 3 or more nuclei per cell, were collected as differentiated osteoclasts. […]

[3] = tested on: stromal cell line ST-2 derived from mouse bone marrow; assay: Cytotoxicity of ACNQ by MTT assay in ST-2 cells; type: cell-based; conditions: at the peak concentration of ALP activity, 1 μg/mL (FIG. 5)
Protocol: (§1) The cells were washed with PBS, and then immobilized with ethanol for 1 minute. An enzyme reaction solution (a buffer containing p-nitrophenyl phosphate, 0.1 M glycine, 1 mM MgCl2 and 0.1 mM ZnCl2 as substrates, pH 10.5) of 37° C. was added to have the cells reacted at 37° C. for 30 minutes. An equiamount of 0.05 N NaOH was added to quench the reaction. ALP activity was expressed in terms of units, with 1 unit representing the amount of p-nitrophenol formed in a minute per mg-protein as measured in terms of absorbance at 415 nm). Protein contents were determined using a protein assay kit (product of Bio-Rad Lab.). Further, the cytotoxicity of ACNQ was measured by MTT assay (FIG. 5).

[4] = tested on: human osteoblasts (SaM-1); assay: Cytotoxicity by free LDH in culture supernatant of SaM-1 cells; type: cell-based; conditions: 32nd day of culture, 10^−5 M to 10^−7 M (FIG. 8)
Protocol: Using “LDH-Cytotoxic Test Wako” (cytotoxicity assay kit), free LDH in each culture supernatant was measured to investigate the cytotoxicity of ACNQ. Culture supernatants on the 32nd day of culture were sampled, and subsequent to a staining reaction, their LDH concentrations were measured by using a microplate reader (540 nm).

[5] = tested on: human bone marrow cells (monocytes); assay: Formation of TRAP-positive polykaryocytes in culture of human bone marrow monocytes; type: cell-based
Protocol: (1) Human bone marrow cells obtained during an artificial caput replacement operation were subjected to density-gradient centrifugation to collect monocytes. Those monocytes were seeded into α-MEM medium, which contained 20% equine serum and 10^−8 M 1α,25(OH)2D3, to give 8×10^5 cells/well (079 cm^2), and were then cultured for […]. The cultures were each replaced twice a week by a half of its volume each time. Addition of ACNQ was conducted at the beginning.
On the 16th day of culture, the cultures were treated with pronase and EDTA to eliminate stromal cells. On the following day, the cells were washed with PBS(−) and then immobilized with formalin. The formalin-immobilized cells were subjected to TRAP staining, and the TRAP-positive polykaryocyte counts of the respective wells were determined. Vitamin K1 was used as a control.

[6] = tested on: stromal cell line ST-2 derived from mouse bone marrow; assay: ALP activity of ST-2 cells cultured with ACNQ (osteogenesis promoting effect); type: cell-based
Protocol: Cells of the stromal cell line ST-2 derived from mouse bone marrow (Udagawa, N. et al.: Endocrinology 125, 1805-1813, 1989) were used as osteoblasts. These cells have similar osteoclast differentiation inducing ability for bone marrow cells as osteoblasts.
The cells were seeded in the individual wells of a 96-well plate at 4×10^4 cells/well, and cultured for 1 day in RPMI 1640 medium which contained 10% FBS, penicillin G and streptomycin.
The medium was replaced by the same medium which contained ACNQ, and cultured further for 3 days. After the culture, the ALP activity of cells was assayed.
as §1

[7] = tested on: osteoclasts from ddY mouse co-culture; assay: Cytotoxicity against osteoclasts on a piece of dentinum; type: cell-based; conditions: differentiated and matured mouse osteoclasts (FIG. 11)
Protocol: A still further investigation was also conducted on TRAP-positive cells formed by a co-culture system of primary osteoblast-like interstitial cells derived from the calvaria of a mouse newborn and mouse bone marrow cells. […] Effects of ACNQ on the activity of a bone re sorbing system were then investigated. Measured were the formation of resorption lacunae and cytotoxicity on a piece of dentinum in an osteoclast forming system by co-culture of primary osteoblast-like interstitial cells derived from the calvaria of the above mouse newborn and mouse bone marrow cells.
Those osteoclast-like polykaryocytes were prepared to 4×10^3 cells/mL with αMEM medium containing 10% FBS, seeded at 100 μL/well into wells (96 wells) in which pieces of dentinum were placed, respectively, and cultured at 37° C. for 2 hours. After the culture, the individual cultures were transferred to 24 wells or 48 wells in which a culture medium was placed at 0.5 to 1.5 mL/well. At the same time, ACNQ solutions of various concentrations were added to the wells, respectively, followed by culture at 37° C. for 24 hours. […] After the staining solution was removed, resorption lacunae formed in the surface of each piece of dentinum as a result of binging by […] were counted under a microscope. […]

[8] = tested on: osteoclast-like polykaryocytes from ddY mouse co-culture; assay: Formation of bone resorption lacunae on a piece of dentinum by osteoclasts; type: cell-based; conditions: 24 hours on dentinum, even at the highest concentration, 7.5 μg/mL (FIG. 11)
Protocol: Investigated was the effect of ACNQ on the formation of bone resorption lacunae on a piece of dentinum by osteoclasts.
As in the test (2) of Test 4, a culture (20 mL) containing primary osteoblast-like interstitial cells, which had been derived from the calvariae of ddY mice newborn, and bone marrow cells, which had been isolated from the femurs and shinbones of the same strain mice (males of 6 to 9 weeks of age), at a ratio of 1×10^6 cells to 1×10^7 cells in a 100 mm dish was co-cultured for 6 to 8 days on a collagen gel in αMEM medium in which 10% FEB and 10^−8 M 1α,25(OH)2D3 had been added. Medium replacement was conducted on every third days. After the culture, a 0.2% collagenase solution was added. The thus-obtained mixture was gently shaken at 37° C. for 20 minutes to digest the collagen gel, and differentiation-induced osteoclast-like polykaryocytes were collected. The count of osteoclasts obtained by this method was at most 4×10^4 cells/100 mm-dish.
Those osteoclast-like polykaryocytes were prepared to 4×10^3 cells/mL with αMEM medium containing 10% FBS, seeded at 100 μL/well into wells (96 wells) in which pieces of dentinum were placed, respectively, and cultured at 37° C. for 2 hours. […] After the staining solution was removed, resorption lacunae formed in the surface of each piece of dentinum as a result of binging by […] were counted under a microscope. […]

osteoclast formation = conditions: side chains of vitamin K1 or K2; Hara, K. et al.: Bone, 16, 179-184, 1995; cited from earlier work

## C=C1/C(=C\C=C2/CCC[C@]3(C)[C@@H]([C@H](C)CCCC(C)(C)O)CC[C@@H]23)C[C@@H](O)C[C@@H]1O [1α,25(OH)2D3, reference compound]
[1]; 10^−8 M to 10^−9 M (FIGS. 6 and 7)
  mineralization (Ca and P accumulation): promote mineralization concentration-dependently

## NC1=C(C(=O)O)C(=O)c2ccccc2C1=O [ACNQ, 2-amino-3-carboxy-1,4-naphthoquinone]
[2]; mouse co-culture with 1α,25(OH)2D3, 6 to 8 days, ACNQ 0.15 to 15 μg/mL (FIG. 10)
  differentiation and maturation of monocytes into osteoclasts (TRAP-positive cells with 3 or more nuclei): inhibited differentiation and maturation
[2]; mouse co-culture, ACNQ at 1.5 μg/mL and higher (FIG. 10)
  formation of osteoclasts: considerably inhibited the formation of osteoclasts
[3]
  cytotoxicity (MTT assay, viable cell count): cytotoxicity was not observed at all
[4]
  cytotoxicity (free LDH in culture supernatant): not determined to show cytotoxicity
[5]; human monocytes with 10^−8 M 1α,25(OH)2D3, ACNQ 10^−8 M to 10^−5 M (FIG. 9)
  formation of osteoclasts (TRAP-positive polykaryocytes): inhibited the formation of osteoclasts concentration-dependently
[5]; human monocytes, same concentration as vitamin K1 (FIG. 9)
  inhibitory effect on osteoclast formation compared with vitamin K1: significantly stronger than that available from vitamin K1
[1]; 10^−5 M to 10^−7 M (FIGS. 6 and 7)
  mineralization (Ca and P accumulation): promote mineralization concentration-dependently
[6]; 3 days culture (FIG. 4)
  ACNQ concentration at which ALP activity reached the peak: ~1 µg/mL
[6]; 3 days culture, up to an ACNQ concentration of 1 μg/mL (FIG. 4)
  ALP activity of the cells: increased concentration-dependently
[7]
  cytotoxicity against osteoclasts: does not exhibit cytotoxicity against osteoclasts
[8]
  bone resorbing activity of osteoclasts (resorption lacunus counts): did not lower the bone resorbing activity of osteoclasts

## C/C(=C\CO)CCC[C@H](C)CCC[C@H](C)CCCC(C)C [phytol]
Osteoclast formation
  osteoclast-formation inhibitory effect: weak in the inhibitory effect
